Reference: PubChem BioAssay AID624133 (Broad Institute, 2012)
Several values for one entry are separate records, joined by “and”; a condition that tells them apart may be missing. Identical values can stand only once.

These compounds were tested on Clone20-Shn3RL cells, Renilla luciferase luminescence, 24 h (assay: control 3'UTR Renilla luciferase suppression, dose response, counter-screen for Shn3 inhibitor project, cell-based, Clone20-Shn3RL, cherry-picked (AID 624133)).

| Structure (SMILES) | AC50 |
| --- | --- |
| CC1=CC2OC3CC4OC(=O)C=CC=CC(C(C)O)OCC(O)C(C)CC(=O)OCC2(CC1O)C4(C)C31CO1 (centres undefined) | < 0.26 µM |
| CC(=O)OC1C(=O)OCC23CCC4(C)OC4C2OC2CC(OC(=O)C=CC=CC(=O)OCCC1C)C3(C)C21CO1 (centres undefined) | < 0.26 µM |
| CC(=O)OC1CC2OC3C=C(C)CCC3(C)C1(C)C21CO1 (centres undefined) | 3.25 µM |
| C[C@H]1[C@@H](OS(=O)(=O)O)C[C@@H]2C[C@H]([C@@H](O)c3cc(=O)[nH]c(=O)[nH]3)NC3=NC[C@H]1N32 | 3.1 µM |
| CC(=O)OC[C@]12CCC(C)=C[C@H]1O[C@@H]1[C@H](O)[C@@H](OC(C)=O)[C@@]2(C)[C@]12CO2 | < 0.26 µM |
| CC1=CC2OC3CC4OC(=O)C=CC=CC(C(C)O)OCC(O)C5(C)OC5C(=O)OCC2(CC1O)C4(C)C31CO1 (centres undefined) | < 0.26 µM |
| CC(=O)OCC12CC(OC(=O)CC(C)C)C(C)=CC1OC1C(O)C(OC(C)=O)C2(C)C12CO2 (centres undefined) | < 0.26 µM |
| CCN1CCN(Cc2ccc(NC(=O)c3cc(NC(=O)c4cc5cccc(OC)c5o4)cc(OC)c3)cc2C(F)(F)F)CC1 | 25.1 µM and 9.12 µM |
| CC1=CC2OC3CC4OC(=O)C=CC=CC(=O)OCCC(C)C(O)C(=O)OCC2(CC1O)C4(C)C31CO1 (centres undefined) | 4.79 µM |
